These results are taken from patent US6930130B2, “Citrullimycines, a process for their production and their use as pharmaceuticals” (Aventis Pharma Deutschland GmbH, priority 2000, dated 2005).

In the test the test system is human neurotensin receptor proteins expressed in HEK cell membranes. Put plainly: SPA [3H] neurotensin receptor binding assay. Conditions: displacement of 4 nM [3H]neurotensin, 2 hours, room temperature. The text has this: The Citrullimycines according to the invention show inhibition in the neurotensin receptor binding assay of human neurotensin receptor proteins expressed in HEK cell membranes.
SPA [^3H] Neurotensin Receptor Binding Assay
Compounds with an affinity for the neurotensin receptor will displace the binding of [3H] neurotensin, which results in a diminished radioactive signal. In the SPA method, receptors immobilized directly on PVT WGA (Wheat Germ Agglutinin) coated SPA beads (Amersham Pharmacia) bind the radiolabelled ligand. The ligand-receptor complex is held in close enough proximity to stimulate emission of light by the bead. Any unbound radioligand is too distant from the bead to transfer energy and therefore will not be detected.
The samples were pre-diluted 1:5 with assay buffer (50 mM Tris-HCl buffer with 1 mM EDTA, 0.2 mM Bacitracin, and 0.1% BSA, pH 7.4) in deep well plates. The final dilution in the assay was 1:20. 96-well isoplates from Wallac were used for the screening. […]
On each plate, four wells without samples were used to determine the total receptor-ligand binding and another four wells with 1 μM (L-α, γ-diaminobutyryl) neurotensin were used to determine the nonspecific binding respectively. Inhibition activities are expressed as: […]

Usually IC50 stands for the concentration that inhibits the measured activity by half. A higher IC50 goes with weaker potency. The compound `CCC(C)CCC(O)CC(=O)OC(CCC(C)C)CC(=O)NC(CCCNC(N)=O)C(=O)OC(CCC(C)CC)CC(=O)OC(CCC(C)CC)CC(=O)O` (stereo not shown) [Citrullimycine A] registered an IC50 of 16 µM.
